Reference: PubChem BioAssay AID1963865 (Molecular Pharmacology Branch, DTP, NCI, 2024)
pIC50: −log10 of the molar value.

System: KRAS PDC multicell spheroid viability
Assay: Anticancer human tumor 825966-067-R-J1-PDC patient-derived colon carcinoma cell line growth inhibition [KRAS2]
Settings: for pIC50: curve of first compound; for viability, T/C: stronger effect = lower value
Procedure, shortened: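 Combination screen of spheroid viability in tumor-cell co-cultures with endothelial (HUVEC) and mesenchymal stem cell stroma. Each agent was tested in half-log dilutions, topping at clinical Cmax or at 10 microM without a known Cmax.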

[1] = second compound 0.1 µM, first compound 0.0316 µM
[2] = second compound 0.1 µM, first compound 0.1 µM
[3] = second compound 0.1 µM, first compound 0.316 µM
[4] = second compound 0.1 µM, first compound 1 µM
[5] = second compound 0.1 µM, first compound 3.16 µM
[6] = second compound 0.1 µM, first compound 10 µM
[7] = second compound 0.316 µM, first compound 0.0316 µM
[8] = second compound 0.316 µM, first compound 0.1 µM
[9] = second compound 0.316 µM, first compound 0.316 µM
[10] = second compound 0.316 µM, first compound 1 µM
[11] = second compound 0.316 µM, first compound 3.16 µM
[12] = second compound 0.316 µM, first compound 10 µM
[13] = second compound 1 µM, first compound 0.0316 µM
[14] = second compound 1 µM, first compound 0.1 µM
[15] = second compound 1 µM, first compound 0.316 µM
[16] = second compound 1 µM, first compound 1 µM
[17] = second compound 1 µM, first compound 3.16 µM
[18] = second compound 1 µM, first compound 10 µM
[19] = second compound 3.16 µM, first compound 0.0316 µM
[20] = second compound 3.16 µM, first compound 0.1 µM
[21] = second compound 3.16 µM, first compound 0.316 µM
[22] = second compound 3.16 µM, first compound 1 µM
[23] = second compound 3.16 µM, first compound 3.16 µM
[24] = second compound 3.16 µM, first compound 10 µM
[25] = second compound 10 µM, first compound 0.0316 µM
[26] = second compound 10 µM, first compound 0.1 µM
[27] = second compound 10 µM, first compound 0.316 µM
[28] = second compound 10 µM, first compound 1 µM
[29] = second compound 10 µM, first compound 3.16 µM
[30] = second compound 10 µM, first compound 10 µM
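Further: spheroids exposed to compounds for 7 days.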
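Wherever viability, T/C is given: 100% = DMSO vehicle control viability.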

Compound: COc1cc(Nc2ncc3c(n2)-c2ccc(Cl)cc2C(c2c(F)cccc2OC)=NC3)ccc1C(=O)O + COc1cc2nc(C)nc(NC(C)c3cc(N)cc(C(F)(F)F)c3)c2cc1OC1CCOC1
- pIC50 (second compound 0.1 µM): < 5.00
- pIC50 (second compound 0.316 µM): < 5.00
- pIC50 (second compound 1 µM): < 5.00
- pIC50 (second compound 3.16 µM): < 5.00
- pIC50 (second compound 10 µM): > 7.50
- viability, T/C [1]: 124%
- viability, T/C [2]: 93.5%
- viability, T/C [3]: 144%
- viability, T/C [4]: 171%
- viability, T/C [5]: 136%
- viability, T/C [6]: 130%
- viability, T/C [7]: 105%
- viability, T/C [8]: 123%
- viability, T/C [9]: 144%
- viability, T/C [10]: 140%
- viability, T/C [11]: 133%
- viability, T/C [12]: 145%
- viability, T/C [13]: 87%
- viability, T/C [14]: 155%
- viability, T/C [15]: 156%
- viability, T/C [16]: 137%
- viability, T/C [17]: 145%
- viability, T/C [18]: 118%
- viability, T/C [19]: 52%
- viability, T/C [20]: 127%
- viability, T/C [21]: 81.3%
- viability, T/C [22]: 110%
- viability, T/C [23]: 69.3%
- viability, T/C [24]: 112%
- viability, T/C [25]: 3.07%
- viability, T/C [26]: 1.62%
- viability, T/C [27]: 0.85%
- viability, T/C [28]: 2.07%
- viability, T/C [29]: 7.95%
- viability, T/C [30]: 1.44%

Compound: COc1cc2nccc(Oc3ccc(NC(=O)C4(C(=O)Nc5ccc(F)cc5)CC4)cc3)c2cc1OC + COc1cc2nc(C)nc(NC(C)c3cc(N)cc(C(F)(F)F)c3)c2cc1OC1CCOC1
- pIC50 (second compound 0.1 µM): 5.81
- pIC50 (second compound 0.316 µM): 5.84
- pIC50 (second compound 1 µM): 5.79
- pIC50 (second compound 3.16 µM): 6.17
- pIC50 (second compound 10 µM): > 7.50
- viability, T/C [1]: 80.9%
- viability, T/C [2]: 87.8%
- viability, T/C [3]: 83.9%
- viability, T/C [4]: 75.1%
- viability, T/C [5]: 9.68%
- viability, T/C [6]: 7.53%
- viability, T/C [7]: 96.2%
- viability, T/C [8]: 81.1%
- viability, T/C [9]: 77.5%
- viability, T/C [10]: 71.4%
- viability, T/C [11]: 6.75%
- viability, T/C [12]: 4.21%
- viability, T/C [13]: 77.1%
- viability, T/C [14]: 98.6%
- viability, T/C [15]: 78.5%
- viability, T/C [16]: 83.5%
- viability, T/C [17]: 4.2%
- viability, T/C [18]: 5.34%
- viability, T/C [19]: 82.3%
- viability, T/C [20]: 80.6%
- viability, T/C [21]: 91.9%
- viability, T/C [22]: 31.9%
- viability, T/C [23]: 2.11%
- viability, T/C [24]: 0.21%
- viability, T/C [25]: 21%
- viability, T/C [26]: 3.18%
- viability, T/C [27]: 1.6%
- viability, T/C [28]: 1.58%
- viability, T/C [29]: 0.32%
- viability, T/C [30]: 0.7%

Compound: O=C(c1cc(Cc2n[nH]c(=O)c3ccccc23)ccc1F)N1CCN(C(=O)C2CC2)CC1 + COc1cc2nc(C)nc(NC(C)c3cc(N)cc(C(F)(F)F)c3)c2cc1OC1CCOC1
- pIC50 (second compound 0.1 µM): < 5.00
- pIC50 (second compound 0.316 µM): < 5.00
- pIC50 (second compound 1 µM): < 5.00
- pIC50 (second compound 3.16 µM): < 5.00
- pIC50 (second compound 10 µM): < 5.00
- viability, T/C [1]: 84.2%
- viability, T/C [2]: 91.5%
- viability, T/C [3]: 92.3%
- viability, T/C [4]: 77.2%
- viability, T/C [5]: 69.3%
- viability, T/C [6]: 75%
- viability, T/C [7]: 80.3%
- viability, T/C [8]: 79.2%
- viability, T/C [9]: 95.5%
- viability, T/C [10]: 80.5%
- viability, T/C [11]: 98.9%
- viability, T/C [12]: 95.9%
- viability, T/C [13]: 79.4%
- viability, T/C [14]: 81.5%
- viability, T/C [15]: 69.1%
- viability, T/C [16]: 87%
- viability, T/C [17]: 68.1%
- viability, T/C [18]: 89.6%
- viability, T/C [19]: 104%
- viability, T/C [20]: 115%
- viability, T/C [21]: 117%
- viability, T/C [22]: 113%
- viability, T/C [23]: 96.8%
- viability, T/C [24]: 88.8%
- viability, T/C [25]: 115%
- viability, T/C [26]: 121%
- viability, T/C [27]: 122%
- viability, T/C [28]: 117%
- viability, T/C [29]: 72%
- viability, T/C [30]: 89.5%
